Measured values as given in PubChem BioAssay (NCI).
Values joined by “and” are separate entries in the source; they are usually repeats but may differ in a detail not shown here. Equal values may be shown once.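 Five concentrations, 48 hours, 96-well plates. GI50: concentration for 50% inhibition of growth. Definition used: TGI = concentration required for complete inhibition of growth.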 Where a SMILES comes first, the peptide text is derived from it. The star is where a group is joined. Cbz = O=C(OCc1ccccc1)*; CH2Cl = ClC*

Columns and labels:
Assay in all cases: inhibition of tumour cell growth, NCI panel, 48 h
SK-MEL-5 melanoma = system: SK-MEL-5 melanoma
EKVX NSCLC = system: EKVX NSCLC
HOP-62 NSCLC = system: HOP-62 NSCLC
SF-295 CNS = system: SF-295 CNS
SN12C renal = system: SN12C renal
A549 NSCLC = system: A549 NSCLC
SK-OV-3 ovarian = system: SK-OV-3 ovarian
TK-10 renal = system: TK-10 renal
OVCAR-8 ovarian = system: OVCAR-8 ovarian
SNB-19 CNS = system: SNB-19 CNS

Row | SMILES | TGI (SK-MEL-5 melanoma) | TGI (EKVX NSCLC) | TGI (HOP-62 NSCLC) | TGI (SF-295 CNS) | TGI (SN12C renal) | TGI (A549 NSCLC) | TGI (SK-OV-3 ovarian) | TGI (TK-10 renal) | TGI (OVCAR-8 ovarian) | TGI (SNB-19 CNS) | GI50 (SK-MEL-5 melanoma) | GI50 (EKVX NSCLC) | GI50 (HOP-62 NSCLC) | GI50 (SF-295 CNS) | GI50 (SN12C renal) | GI50 (A549 NSCLC) | GI50 (SK-OV-3 ovarian) | GI50 (TK-10 renal) | GI50 (OVCAR-8 ovarian) | GI50 (SNB-19 CNS)
1 | COc1cc2c(c(OC)c1OC)-c1ccc(SC)c(=O)cc1C(NC=O)CC2 (stereo not drawn) | < 0.01 µM | > 85.2 µM | > 90.8 µM | 0.123 µM | > 89.5 µM | > 83.4 µM | 63.9 µM | > 100 µM | > 68.5 µM | > 100 µM |  |  |  |  |  |  |  |  |  | 
2 | Cc1ccc(NC(=O)CC2CC2)cc1-c1ccc(C(=O)NCC2CC2)cc1 | > 25 µM | > 25 µM | > 25 µM | > 25 µM | > 25 µM | > 25 µM | > 25 µM | > 25 µM | > 25 µM | > 25 µM | > 17.5 µM | > 25 µM | > 25 µM | > 25 µM | > 25 µM | > 25 µM | > 25 µM | > 25 µM | > 25 µM | > 25 µM
3 | CS(=O)(=O)CCNCc1nc(-c2ccc3ncnc(Nc4ccc(OCc5cccc(C(F)(F)F)c5)cc4)c3c2)cs1 | > 25 µM | > 25 µM | 12.9 µM | > 25 µM | > 25 µM | > 25 µM | > 21.6 µM | > 25 µM | > 25 µM | > 25 µM | > 21.6 µM | > 20.4 µM | 5.5 µM | 9.45 µM | > 25 µM | > 22 µM | 6.01 µM | 1.67 µM | 11.1 µM | 11.1 µM
4 | COc1ccc(NC(=O)/C(Cc2cc(=O)oc3cc(O)ccc23)=N\NC(C)(C)C)c(OC)c1 | > 100 µM | > 100 µM | > 100 µM | > 100 µM | > 100 µM | > 100 µM | > 100 µM | > 100 µM | > 100 µM | > 100 µM |  |  |  |  |  |  |  |  |  | 
5 | COc1cc(-n2cc(-c3ccc(F)cc3)[nH]c2=O)cc(OC)c1OC | > 100 µM | > 100 µM | > 100 µM | > 100 µM | > 100 µM | > 100 µM | > 100 µM | > 100 µM | > 100 µM | > 100 µM | > 100 µM | > 100 µM | > 100 µM | > 100 µM | > 100 µM | > 100 µM | > 100 µM | > 100 µM | > 100 µM | > 100 µM
6 | O=C(CC1(O)C(=O)N(Cc2ccccc2)c2ccc(F)cc21)c1ccc(C(=O)NCC2CCC3(CC2)OOC2(CCCCC2)OO3)cc1 (stereo not drawn) | 2.96 µM | 1.25 µM | 0.382 µM | 1.69 µM | 3.74 µM | 0.441 µM | > 24 µM | 0.413 µM | 0.723 µM | 43.5 µM | 1.54 µM | 0.412 µM | 0.179 µM | 0.654 µM | 1.73 µM | 0.207 µM | 2.9 µM | 0.191 µM | 0.267 µM | 3.44 µM
7 | C=C(C)[C@@H]1CC[C@]2(C)[C@H](CC=C3[C@@H]4CC(C)(C)CC[C@]4(C(N)=O)CC[C@]32C)[C@@]1(C)CCC#N | 3.31 µM | > 100 µM | > 100 µM | > 100 µM | 3.7 µM | > 100 µM | > 100 µM | > 100 µM | > 100 µM | > 100 µM | 1.83 µM | 3.6 µM | 7.44 µM | 3.91 µM | 1.84 µM | 4.1 µM | 4.62 µM | 7.32 µM | 5.24 µM | 4.05 µM
8 | Cc1[nH]c2ccccc2c1C(=O)/C=C/c1ccccc1O | > 100 µM | > 100 µM | > 100 µM | > 100 µM | > 100 µM | > 100 µM | > 100 µM | > 100 µM | > 100 µM | > 100 µM |  |  |  |  |  |  |  |  |  | 
9 | NCCNc1c2c(c(NCCN)c3[nH]ccc13)C(=O)c1ccccc1C2=O | 0.808 µM | 3.91 µM | 0.624 µM | 0.352 µM | 0.994 µM | 2.53 µM | 5.52 µM | 0.682 µM | 0.612 µM | 1.12 µM | 0.178 µM | 1.25 µM |  | < 0.0341 µM | 0.0978 µM | 0.63 µM | 0.79 µM | 0.145 µM | 0.151 µM | 0.206 µM
10 | COc1cc2c3c(n(C)c(=O)c2cc1OC)-c1cc2c(cc1/C3=C\CN)OCO2 | 2.32 µM | > 100 µM | 17 µM | 0.614 µM | > 100 µM | 2.81 µM |  | 32.8 µM | > 51.9 µM |  | 0.296 µM | 11.6 µM | 0.189 µM |  | 0.565 µM | 0.273 µM | 0.412 µM | 4.04 µM | 0.774 µM | < 0.0405 µM
11 | O=C(CSc1nc2ccccc2nc1-c1ccccc1)Nc1ccc(F)cc1 | 54.8 µM | > 100 µM | > 100 µM | > 100 µM | > 100 µM | > 100 µM | > 100 µM | > 100 µM | > 100 µM | > 100 µM | 16.5 µM | 75 µM | 32.6 µM | 40.6 µM | 36.5 µM | 49.3 µM | 35 µM | 41.1 µM | 30 µM | 34.5 µM
12 | Cc1c2c(C#N)nccc2c(C)c2c1c1ccccc1n2Cc1ccccc1 | > 100 µM | > 100 µM | > 100 µM | > 100 µM | > 100 µM | > 100 µM | > 100 µM | > 100 µM | > 100 µM | > 100 µM |  |  |  |  |  |  |  |  |  | 
13 | COc1cc(Cn2c(-c3ccccc3)c(Cl)c3c2-c2oncc2CC3)cc(OC)c1 | 19.6 µM | > 100 µM | > 100 µM | > 100 µM | 38.4 µM | > 100 µM | > 100 µM | > 100 µM | > 100 µM | > 100 µM | 5.5 µM | 4.97 µM | 44 µM | 3.05 µM | 12.7 µM | 8.57 µM | 15.2 µM | 26.5 µM | 15.9 µM | 22.8 µM
14 | [Cl][Hg][c]1cc[c]([Hg][Cl])o1 | 9.6 µM | 28.1 µM | 28.4 µM | 58.6 µM | 12.9 µM | 53.5 µM | 77.6 µM | 3.1 µM | 34.6 µM | 15.8 µM | 2.43 µM | 2.78 µM | 13.5 µM | 19.4 µM | 2.25 µM | 21.9 µM | 15 µM | 1.7 µM | 3.39 µM | 3.44 µM
15 | O=C(Nc1ccncc1)C(=O)c1cn(S(=O)(=O)c2ccc(F)cc2)c2ccccc12 | 16.3 µM | > 100 µM | > 100 µM | 38.1 µM | > 100 µM | > 100 µM | 85.9 µM | 72.4 µM | > 100 µM | > 100 µM | 1.84 µM | 3.9 µM | 3.02 µM | 3.01 µM | 6.58 µM | 18.5 µM | 22.3 µM | 19.2 µM | 4.33 µM | 19.5 µM
16 | Cc1cc(Cl)ccc1NC(=O)C(=O)Cc1nc2ccccc2o1 | > 100 µM | > 100 µM | > 100 µM | > 100 µM | > 100 µM | > 100 µM | > 100 µM | > 100 µM | > 100 µM | > 100 µM |  |  |  |  |  |  |  |  |  | 
17 | CCSc1ncnc2c1ncn2C1OC(CO)C(O)C1O (stereo not drawn) | > 100 µM | > 100 µM | > 100 µM | > 43.1 µM | > 100 µM | > 60.2 µM | > 100 µM | > 100 µM | 16 µM | > 100 µM | 2.83 µM | 0.419 µM | 1.47 µM | 0.843 µM | 0.449 µM | 0.777 µM | 0.754 µM | 1.56 µM | 0.296 µM | 8.24 µM
18 | CCOc1ccc(NC(=O)C(=O)CC(=O)c2c(C)n([O-])c3ccccc3[n+]2=O)cc1 | > 100 µM | > 100 µM | > 100 µM | > 100 µM | > 100 µM | > 100 µM | > 100 µM | > 100 µM | > 100 µM | > 100 µM |  |  |  |  |  |  |  |  |  | 
19 | COc1c(OC[C@H](O)CN2CCOCC2)ccc2c3n(c(=NC(=O)c4cccnc4C)nc12)CCN3 | > 50 µM | > 50 µM | > 50 µM | 17.2 µM | > 50 µM | > 50 µM | 2.27 µM | > 50 µM | > 50 µM | > 50 µM | > 50 µM | 1.05 µM | 1.41 µM | 0.541 µM | 1.72 µM | 0.826 µM | 0.115 µM | 0.0941 µM | > 50 µM | 5.1 µM
20 | O=C(O)Cc1cc(Cl)ccc1O | > 100 µM | > 100 µM | > 100 µM | > 100 µM | > 100 µM | > 100 µM | > 100 µM | > 100 µM | > 100 µM | > 100 µM |  |  |  |  |  |  |  |  |  | 
21 | CC(C)CC(NC(=O)OCc1ccccc1)C(=O)NC(Cc1ccccc1)C(=O)CCl (stereo not drawn) (Cbz-Leu-Phe-CH2Cl; configuration not given here) | 3.5 µM | 34.5 µM | 30.5 µM | 43.7 µM | 3.39 µM | 39.4 µM | 16.1 µM | 3.24 µM | 5.11 µM | > 56.8 µM |  |  |  |  |  |  |  |  |  | 
22 | C=C(Cl)C(Br)(CCl)CCC(Br)C(C)(C)Cl (stereo not drawn) | 6.96 µM and 6.1 µM | 12.8 µM | 7.66 µM | 19.9 µM | 7.06 µM and 3.6 µM | 38.1 µM | 27.1 µM | 24.6 µM | 5.69 µM | 8.73 µM |  |  |  |  | 1.89 µM |  |  |  | 2.26 µM | 
